Test results taken from PubChem BioAssay (NCI).
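Dose response: 5 concentrations. Exposure: 48 h. Format: 96-well plates. Endpoint: linear interpolation; highest concentration if not reached. Here, GI50 denotes the concentration required for 50% inhibition of growth. TGI denotes the concentration required for complete inhibition of growth.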

How the values were obtained:
Assay in all cases: DTP human tumour cell line panel, 48 h
[1] = test system: NCI/ADR-RES ovarian
[2] = test system: HT29 colon
[3] = test system: MALME-3M melanoma
[4] = test system: COLO 205 colon
[5] = test system: DU-145 prostate
[6] = test system: A498 renal
[7] = test system: T-47D breast
[8] = test system: PC-3 prostate
[9] = test system: RXF 393 renal
[10] = test system: RPMI-8226 leukemia

| SMILES | GI50 [1] [µM] | TGI [1] [µM] | GI50 [2] [µM] | TGI [2] [µM] | GI50 [3] [µM] | TGI [3] [µM] | GI50 [4] [µM] | TGI [4] [µM] | GI50 [5] [µM] | TGI [5] [µM] | GI50 [6] [µM] | TGI [6] [µM] | GI50 [7] [µM] | TGI [7] [µM] | GI50 [8] [µM] | TGI [8] [µM] | GI50 [9] [µM] | TGI [9] [µM] | GI50 [10] [µM] | TGI [10] [µM] |
| --- | --- | --- | --- | --- | --- | --- | --- | --- | --- | --- | --- | --- | --- | --- | --- | --- | --- | --- | --- | --- |
| C=C1C(=O)O[C@H]2[C@H]1CC/C(Cn1cc(CCC)nn1)=C\CC[C@@]1(C)O[C@@H]21 | 15.2 | 33.4 | 5.5 | 18.2 | 4.7 | 18.4 | 5.22 | 17.1 | 4.32 | 16 | 21.5 | 36.6 | 4.11 | 21.3 | 14.9 | 29.4 | 4.8 | 16.5 | 5.52 | 27.1 |
| COc1ccc(-n2c(N)c(C(=O)NCCN3CCOCC3)c3nc4ccccc4nc32)cc1OC | 36 | > 100 | 5.8 | > 100 | 6.32 | 71.8 | 6.97 | > 100 | 9.81 | > 100 | 7.98 | > 100 | 25 | > 100 | 11.7 | 87.3 | 34.1 | > 100 | 3.36 | > 100 |
| COC(=O)c1c(-c2ccccc2)csc1NC(=O)c1c(-c2ccccc2)noc1C | 1.5 | > 100 | 0.399 | > 100 | > 100 | > 100 | 1.21 | > 100 | 1.98 | > 100 | > 100 | > 100 | 3.41 | > 100 | 1.28 | > 100 | 0.762 | 3.97 | 0.793 | > 100 |
| O=C1c2cccc3cccc(c23)C(=O)N1CCCCOc1ccc(-c2nc3ccc(N4CCOCC4)cc3[nH]2)cc1 | 10.3 | > 83.9 | 2.23 | > 35.3 | 0.558 | 3.21 | 3.78 | 13.7 | 3.86 | 15.8 | 3.38 | 20.2 | 3.08 | 15.9 | 3.16 | 23.6 | 0.547 | 3 | 1.27 | 4.39 |
| CCOc1ccc2c(c1)/C(=C\C=C\C1CC(C)C3CC(OCC)CCC3N1CC)CC(C)N2CC (stereo not given) | 3.14 | > 100 | 0.521 | 1.69 | 1.61 | 3.42 | 1.36 | 2.82 | 0.991 | 2.25 | 0.378 | 1.83 | 0.334 | 2.12 | 0.558 | 2.28 | 1.17 | 2.59 | 0.269 | 1.65 |
| O=C1NC(=NCCc2ccccc2Cl)S/C1=C\c1ccc2ncccc2c1 | 7.73 | > 25 | 2.79 | > 18.9 | > 21.3 | > 25 | 3.98 | > 25 | 6.9 | > 25 | 3.68 | 17.6 | 7.34 | > 25 | 6.26 | > 25 | 4.85 | > 25 | 1.83 | > 25 |
| CC(C)(C)c1ccc(-c2nnc(SCc3ccc(Cl)cc3)n2-c2cccc(C(F)(F)F)c2)cc1 |  | > 100 |  | > 100 |  | > 100 |  | 23.4 |  | > 100 |  | > 100 |  | > 100 |  | > 100 |  | > 100 |  | 30.6 |
